Measurements as given in US20070232563A1, “Method for Enhancing Biological Activity and/or Expanding Suitable Region for Biological Activity of Living Body Contacting with Aqueous Environment” (Kabushiki Kaisha Hayashibara Seibutsu Kagaku Kenky, priority 2004, published 2007).

Key:
[1] = tested on: gold fish (Japanese gold fish, Carassius auratus) with columnaris disease; test: Treatment for a disease of gold fish (columnaris disease); format: in vivo; conditions: bred one week, each ingredient 1 (w/v)%; for Treatment effect: columnaris disease; for Activity of gold fish: macroscopic observation
Procedure: One per group of gold fish (Japanese gold fish, Carassius auratus) with columnaris disease was bred in an aquarium filled with 2 L of aqueous solution containing 1 w/v % mineral and 1 w/v % α,α-trehalose or α-maltosyl α,α-trehalose at ambient temperature with normal feed for one week. Waters containing either of mineral, α,α-trehalose or α-maltosyl α,α-trehalose as references and water as a control were prepared to breed similarly as above. The fishes were macroscopically observed their activity and treatment effect.

[2] = tested on: crucian (Carassium cuvieri); test: Removing fishy smell of freshwater fish: activity and sashimi panel; format: in vivo, Carassius cuvieri; conditions: macroscopic observation; bred three days; each ingredient 1 (w/v)%
Procedure: Two per group of living crucian (Carassium cuvieri) with body size in the range of 15 to 20 cm were bred at ambient temperature in an aquarium filled with 10 L of an aqueous solution containing 1 w/v % mineral (solar salt) and 1 w/v % α,α-trehalose or α-maltosyl α,α-trehalose, on a dry solid basis, for three days. Waters containing either of mineral, α,α-trehalose or α-maltosyl α,α-trehalose as references and water without any mineral and saccharides as a control were prepared to breed the fishes similarly as above. The fishes were macroscopically observed their activity, and then prepated into sashimi. Twenty panels were allowed to taste them to judge their flavor and taste (fishy smell) in such a manner of comparing with references by the following four judgment criterions; “good”: no fishy smell; “slightly good”: fishy smell is weaker than the references; “normal”: fishy smell is equal to the references; and “bad”: fishy smell is stronger than the references.

[3] = tested on: short-necked clam (Ruditapes philippinarum); test: Biological activity of short-necked clam (aqueduct extension score) in aqueous mineral solutions; format: in vivo; conditions: for Judgment score of biological activity: Experiment 2; for Judgment score for biological activity: total of 18 clams, 16 h
Procedure: Suitable region for biological activity of short-necked clam (Ruditapes philippinarum), as a fish or shellfish living in seawater, was examined by adding various saccharides to mineral aqueous solutions with various concentrations. In detail, solar salt (85% by weight of sodium chloride and 15% by weight of magnesium) as minerals was dissolved in running water kept in a container for two days to give final concentrations described in the following Table 1. Saccharide (any one of D-glucose, maltose, sucrose, maltitol, α,α-trehalose, α-maltosyl α,α-trehalose, maltotetraose and cyclic tetrasaccharide) was dissolved in the resulting salt solutions to give a final concentration of 1 w/v %, on a dry solid basis. Each of the resulting solutions was placed in a plastic bat. Eighteen pre-selected active short-necked clam in one group were placed in the bat. The bat was shaded with a black cloth and left at ambient temperature (18° C.) for 16 hours. As a control, an aqueous solar salt solution without any saccharides was prepared. Saccharides except for α-maltosyl α,α-trehalose as a saccharide derivatives thereof and cyclic tetrasaccharide were chosen from commercialized products. α-Maltosyl α,α-trehalose as saccharide derivatives of α,α-trehalose in a powder form with a purity of 98 w/w % or over was prepared by the method disclosed in Experiment 4 in Japanese Patent Kokai No. 143876/1995. Cyclic tetrasaccharide in a crystalline form with a purity of 98 w/w % or over, on a dry solid basis, was prepared by the method disclosed in Example A-7 in International Patent Publication No. WO02/10361. Influence of various saccharides was judged by observing the degree of extending aqueduct of the shellfish; 3 points: its aqueduct is well extended; 2 points: its aqueduct is slightly extended; 1 point: its aqueduct is not extended but its shells are opened; 0 point: its shells are closed. The effect on biological activity was judged by the total point of 18 shellfishes. To investigate the effective concentration range of α,α-trehalose or α-maltosyl α,α-trehalose against a mineral solution with a concentration of 1.5 w/v % or 4.5 w/v %, where α,α-trehalose or α-maltosyl α,α-trehalose was remarkably effective in Experiment 1, the following experiment using α,α-trehalose or α-maltosyl α,α-trehalose at a concentration of 0.01, 0.1, 1, 2, 3 or 4 w/v % was carried out according to the method in Experiment 1. As a control, mineral aqueous solutions with a concentration of 1.5 w/v % or 4.5 w/v % without any of the saccharides were prepared and carried out in the same manner.

[4] = mineral 1.5 w/v %, saccharide 0.01 w/v %
[5] = mineral 1.5 w/v %, saccharide 0.1 w/v %
[6] = mineral 1.5 w/v %, saccharide 1 w/v %
[7] = mineral 1.5 w/v %, saccharide 2 w/v %
[8] = mineral 1.5 w/v %, saccharide 3 w/v %
[9] = mineral 1.5 w/v %, saccharide 4 w/v %
[10] = mineral 4.5 w/v %, saccharide 0.01 w/v %
[11] = mineral 4.5 w/v %, saccharide 0.1 w/v %
[12] = mineral 4.5 w/v %, saccharide 1 w/v %
[13] = mineral 4.5 w/v %, saccharide 2 w/v %
[14] = mineral 4.5 w/v %, saccharide 3 w/v %
[15] = mineral 4.5 w/v %, saccharide 4 w/v %
[16] = mineral 0 w/v %, saccharide 1 w/v %
[17] = mineral 0.5 w/v %, saccharide 1 w/v %
[18] = mineral 1.0 w/v %, saccharide 1 w/v %
[19] = mineral 2.0 w/v %, saccharide 1 w/v %
[20] = mineral 2.5 w/v %, saccharide 1 w/v %
[21] = mineral 3.0 w/v %, saccharide 1 w/v %
[22] = mineral 3.5 w/v %, saccharide 1 w/v %
[23] = mineral 4.0 w/v %, saccharide 1 w/v %
[24] = mineral 5.0 w/v %, saccharide 1 w/v %
[25] = mineral 5.5 w/v %, saccharide 1 w/v %
[26] = mineral 6.0 w/v %, saccharide 1 w/v %

SMILES	Treatment effect [1]	Activity of gold fish [1]	Activity of Carassius cuvieri [2]	Judgment score of biological activity [3, 4]	Judgment score of biological activity [3, 5]	Judgment score of biological activity [3, 6]	Judgment score of biological activity [3, 7]	Judgment score of biological activity [3, 8]	Judgment score of biological activity [3, 9]	Judgment score of biological activity [3, 10]	Judgment score of biological activity [3, 11]	Judgment score of biological activity [3, 12]	Judgment score of biological activity [3, 13]	Judgment score of biological activity [3, 14]	Judgment score of biological activity [3, 15]	Judgment score for biological activity [3, 16]	Judgment score for biological activity [3, 17]	Judgment score for biological activity [3, 18]	Judgment score for biological activity [3, 6]	Judgment score for biological activity [3, 19]	further results
OC[C@H]1O[C@H](O[C@H]2O[C@H](CO)[C@@H](O)[C@H](O)[C@H]2O)[C@H](O)[C@@H](O)[C@@H]1O [α,α-Trehalose, α,α-trehalose]	Bad	Good	Good	19	38	44	47	38	21	21	35	50	51	31	18	12	16	38	44	47	Judgment score for biological activity [3, 20]: 51; Judgment score for biological activity [3, 21]: 54; Judgment score for biological activity [3, 22]: 50; Judgment score for biological activity [3, 23]: 50; Judgment score for biological activity [3, 12]: 49; Judgment score for biological activity [3, 24]: 34; Judgment score for biological activity [3, 25]: 10; Judgment score for biological activity [3, 26]: 5
OC[C@H]1O[C@H](O[C@H]2O[C@H](CO)[C@@H](O[C@H]3O[C@H](CO)[C@@H](O[C@H]4O[C@H](CO)[C@@H](O)[C@H](O)[C@H]4O)[C@H](O)[C@H]3O)[C@H](O)[C@H]2O)[C@H](O)[C@@H](O)[C@@H]1O [α-Maltosyl α,α-trehalose, α-maltosyl α,α-trehalose]	Bad	Good	Good	18	35	41	43	34	16	16	37	44	45	30	15	11	14	36	40	45	Judgment score for biological activity [3, 20]: 49; Judgment score for biological activity [3, 21]: 53; Judgment score for biological activity [3, 22]: 50; Judgment score for biological activity [3, 23]: 47; Judgment score for biological activity [3, 12]: 45; Judgment score for biological activity [3, 24]: 33; Judgment score for biological activity [3, 25]: 11; Judgment score for biological activity [3, 26]: 2
